In patent publication US20220265582A1, “EFFECTS OF MESCALINE AND OF MESCALINE ANALOGS (SCALINES) TO ASSIST PSYCHOTHERAPY” (Universitätsspital Basel, priority 2021, published 2022):
Like-named read-outs stand apart in the source and are kept apart here.

Key:
healthy male subjects = details: cited from earlier work; for psychoactive or cardiostimulant properties of metabolites administered to humans: in vivo
5-HT transporter (SERT) = 5-HT transporter (SERT) (Homo sapiens, UniProt P31645); details: cited from earlier work
Sequence of 5-HT transporter (SERT) (P31645 whole entry): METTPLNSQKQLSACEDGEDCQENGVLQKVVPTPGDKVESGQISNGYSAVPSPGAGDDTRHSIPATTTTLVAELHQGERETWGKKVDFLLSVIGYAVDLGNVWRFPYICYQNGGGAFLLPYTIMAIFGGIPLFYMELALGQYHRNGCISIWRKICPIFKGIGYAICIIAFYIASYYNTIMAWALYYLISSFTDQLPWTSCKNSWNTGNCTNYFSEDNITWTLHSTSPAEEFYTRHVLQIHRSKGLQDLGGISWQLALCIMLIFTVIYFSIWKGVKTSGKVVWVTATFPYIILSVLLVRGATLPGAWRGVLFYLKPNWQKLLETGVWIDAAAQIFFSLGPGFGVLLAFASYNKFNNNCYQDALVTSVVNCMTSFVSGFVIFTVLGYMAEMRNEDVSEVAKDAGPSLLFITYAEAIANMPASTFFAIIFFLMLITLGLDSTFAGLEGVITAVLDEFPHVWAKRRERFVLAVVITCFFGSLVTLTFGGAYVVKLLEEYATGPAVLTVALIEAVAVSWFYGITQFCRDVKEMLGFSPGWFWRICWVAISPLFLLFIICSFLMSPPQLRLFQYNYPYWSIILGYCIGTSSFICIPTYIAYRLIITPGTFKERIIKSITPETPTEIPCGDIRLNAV

healthy subjects [1] = experiment: Adverse effects, list of complaints (LC), Clinical Study I; type: in vivo, human; details: for mean total LC score: six human volunteers, oral mescaline 300 mg, psilocybin 20 mg, LSD 100 μg, LC 12 hours after administration
Method: Adverse effects (list of complaints): The list of complaints (LC) consists of 66 items offering a global score measuring physical and general discomfort (119). The LC list was administered 12 hours after administration of the drug with reference to complaints throughout the entire session.

healthy subjects [2] = experiment: Visual Analog Scales (VAS) of acute subjective effects, Clinical Study I; details: for duration of subjective effects (VAS any drug effect): mescaline 300 mg, psilocybin 20 mg, LSD 100 μg oral
healthy subjects [3] = experiment: Autonomic measures (blood pressure, heart rate, body temperature), Clinical Study I; type: in vivo, human
Method: Autonomic measures: Blood pressure, heart rate, and body temperature were recorded at baseline and repeatedly throughout the session. Blood pressure (systolic and diastolic) and heart rate were measured with an automatic oscillometric device. Body temperature was measured with an ear thermometer.

5-HT2A receptor = 5-HT2A receptor (Homo sapiens, UniProt P28223); details: FIG. 2 (62); cited from earlier work
Sequence of 5-HT2A receptor (P28223 whole entry): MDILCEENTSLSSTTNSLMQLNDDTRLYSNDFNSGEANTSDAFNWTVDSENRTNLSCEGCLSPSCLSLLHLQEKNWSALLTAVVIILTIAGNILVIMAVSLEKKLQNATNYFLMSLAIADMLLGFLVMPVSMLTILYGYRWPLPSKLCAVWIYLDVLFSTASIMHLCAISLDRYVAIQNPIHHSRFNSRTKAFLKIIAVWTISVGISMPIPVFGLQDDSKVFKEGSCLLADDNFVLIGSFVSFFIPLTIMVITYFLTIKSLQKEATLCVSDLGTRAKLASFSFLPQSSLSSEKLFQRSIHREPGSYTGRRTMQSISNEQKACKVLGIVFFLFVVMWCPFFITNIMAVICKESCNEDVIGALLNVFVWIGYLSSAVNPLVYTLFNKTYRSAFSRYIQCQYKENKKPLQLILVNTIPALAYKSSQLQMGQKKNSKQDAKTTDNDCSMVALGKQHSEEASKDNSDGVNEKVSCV

[4] = LSD vs. MDMA (45); cited from earlier work
healthy subjects [5] = details: 100 μg dose; cited from earlier work
healthy subjects [6] = experiment: 5-Dimensional Altered States of Consciousness (5D-ASC) scale, Clinical Study I; type: in vivo, human; details: 6 subjects
Method: 5-Dimensional Altered States of Consciousness (5D-ASC): The 5-dimensional Altered States of Consciousness (5D-ASC) Scale is a visual analog scale consisting of 94 items (117, 118). The instrument contains five main scales (FIG. 6A) and 11 newer subscales (FIG. 6B) assessing mood, anxiety, derealization, depersonalization, changes in perception, auditory alterations, and reduced vigilance. The scale is well-validated (118). The 5D-ASC scale was administered once at the end of the session and subjects were instructed to retrospectively rate peak alterations that have been experienced during the study session. Each item of the scale is scored on a 0-100 mm VAS. The attribution of the individual items to the subscales of the 5D-ASC was analyzed according to (117, 118) and as shown in FIGS. 6A-6B. The scale was be administered once at the end of each test session.

healthy subjects [7] = details: mescaline sulfate 500 mg, 12 subjects, MDE, 14 subjects, cited from earlier work
humans = details: cited from earlier work
D2 receptors = D2 receptors (Homo sapiens, UniProt P14416); details: FIG. 3; cited from earlier work
Sequence of D2 receptors (P14416 whole entry): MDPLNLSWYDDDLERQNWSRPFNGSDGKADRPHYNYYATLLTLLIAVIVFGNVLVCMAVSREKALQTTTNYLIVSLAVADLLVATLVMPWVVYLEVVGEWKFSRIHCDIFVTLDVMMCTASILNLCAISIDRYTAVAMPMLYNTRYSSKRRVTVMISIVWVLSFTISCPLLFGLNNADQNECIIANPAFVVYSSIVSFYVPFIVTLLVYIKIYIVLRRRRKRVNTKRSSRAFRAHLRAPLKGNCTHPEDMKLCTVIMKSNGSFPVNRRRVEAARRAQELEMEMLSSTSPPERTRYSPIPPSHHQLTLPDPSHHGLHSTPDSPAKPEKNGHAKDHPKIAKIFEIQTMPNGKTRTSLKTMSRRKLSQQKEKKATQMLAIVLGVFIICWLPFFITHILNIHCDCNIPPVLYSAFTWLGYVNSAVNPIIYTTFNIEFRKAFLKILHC

rodent = rodent tests (49); cited from earlier work
[8] = 500 mg mescaline hydrochloride orally
[9] = six healthy volunteers, doses used

Question: Which results are given for `COc1cc(CCNC(C)=O)cc(OC)c1OC` [NAM, N-acetyl-mescaline]?
Answer: share excreted in urine as this species after mescaline (healthy male subjects; [8]): 0.1%; psychoactive or cardiostimulant properties of metabolites administered to humans (healthy male subjects): not to have psychoactive or cardiostimulant properties

Question: Which “interaction with the SERT” value (5-HT transporter (SERT)) does the source give for `CN(C)CCc1c[nH]c2cccc(O)c12` [Psilocin, reference compound] here?
Answer: inhibits the 5-HT transporter (SERT)

Question: Which “mean total LC score” value (healthy subjects [1]) does the source give for `CN(C)CCc1c[nH]c2cccc(OP(=O)(O)O)c12` [psilocybin, reference compound] here?
Answer: 6.8

Question: And the “nausea (VAS)” value (healthy subjects [2]; doses used)?
Answer: highest

Question: What about the “increase in blood pressure and body temperature compared with the other active substances” value (healthy subjects [3]; 6 subjects) of the same compound?
Answer: more pronounced and shorter-lasting increase

Question: With `CCN(CC)C(=O)[C@@H]1C=C2c3cccc4[nH]cc(c34)C[C@H]2N(C)C1` [LSD, lysergic acid diethylamide, reference compound] as the compound, how does the “mean total LC score” value (healthy subjects [1]) read?
Answer: 5.4

Question: What about the “binding potency at the 5-HT2A receptor (rank)” value (5-HT2A receptor) of the same compound?
Answer: binds most potently

Question: And the AED score [4]?
Answer: 26

Question: What about the OB score [4] of the same compound?
Answer: 43

Question: What about the VR score [4] of the same compound?
Answer: 50

Question: And the “area under the effect-time curve, visual and auditory perception (VAS)” value (healthy subjects [2]; doses used)?
Answer: greater

Question: And the “bad drug effect (VAS) peaks” value (healthy subjects [2]; doses used)?
Answer: peaks lower for LSD and mescaline compared with psilocybin

Question: And the “ego-dissolution (VAS)” value (healthy subjects [2]; doses used)?
Answer: mostly increased

Question: And the “stimulated (VAS)” value (healthy subjects [2]; doses used)?
Answer: greater stimulation than mescaline

Question: What about the “synesthesia, "sounds influenced what I saw" (VAS)” value (healthy subjects [2]; doses used) of the same compound?
Answer: highest ratings

Question: What about the “visual and auditory perception change (VAS), ratings/peak” value (healthy subjects [2]; doses used) of the same compound?
Answer: highest ratings

Question: What about the “area under the effect over time curve (VAS any/good drug effect)” value (healthy subjects [2]; [9]) of the same compound?
Answer: greater

Question: And the “duration of subjective effects (VAS any drug effect)” value (healthy subjects [2]; six healthy volunteers)?
Answer: lasted similarly long

Question: What about the duration of effects (healthy subjects [5]) of the same compound?
Answer: 8 h

Question: And the “time of peak responses” value (healthy subjects [5])?
Answer: 3 h

Question: What about the “overall peak effects (total 3D-OAV scores)” value (healthy subjects [6]; LSD 100 μg, psilocybin 20 mg) of the same compound?
Answer: equally strong overall peak effects

Question: For `COc1cc(CCNC(C)=O)cc(O)c1OC` [N-acetyl-(3,4,dimethoxy-5-hydroxyphenylethalymine], which “share excreted in urine as this species after mescaline” value (“share excreted in urine” below) (healthy male subjects; [8]) is on record?
Answer: 5%

Question: Which AED score [4] does the source give for `CNC(C)Cc1ccc2c(c1)OCO2` (stereo not drawn) [MDMA, 3,4-methylendioxymethamphetamine] here?
Answer: 1.3

Question: What about the OB score [4] of the same compound?
Answer: 9.3

Question: And the VR score [4]?
Answer: 4.1

Question: For `COc1cc(CCN)cc(OC)c1OC` [mescaline, 3,4,5-trimethoxyphenethylamine], which “overall tolerability of acute administration” value (healthy subjects [1]; doses used) is on record?
Answer: overall similar to that of LSD or psilocybin

Question: What about the “mean total LC score” value (healthy subjects [1]) of the same compound?
Answer: 8.8

Question: And the “area under the effect-time curve, visual and auditory perception (VAS)” value (healthy subjects [2]; doses used)?
Answer: similar

Question: What about the “bad drug effect (VAS) peaks” value (healthy subjects [2]; doses used) of the same compound?
Answer: peaks lower for LSD and mescaline compared with psilocybin

Question: And the “changed time perception (VAS)” value (healthy subjects [2]; doses used)?
Answer: trends toward lower changes

Question: And the “ego-dissolution (VAS)” value (healthy subjects [2]; doses used)?
Answer: lower ratings

Question: What about the “nausea (VAS)” value (healthy subjects [2]; doses used) of the same compound?
Answer: lowest nausea ratings

Question: And the “openness (VAS)” value (healthy subjects [2]; doses used)?
Answer: smallest peak effect but a longer lasting effect compared with psilocybin

Question: What about the “synesthesia, "sounds influenced what I saw" (VAS)” value (healthy subjects [2]; doses used) of the same compound?
Answer: lower ratings

Question: What about the “visual and auditory perception change (VAS), ratings/peak” value (healthy subjects [2]; doses used) of the same compound?
Answer: lower peak effects than both psilocybin and LSD

Question: And the “talkative (VAS)” value (healthy subjects [2]; first hours)?
Answer: longest effect

Question: And the “area under the effect over time curve (VAS any/good drug effect)” value (healthy subjects [2]; [9])?
Answer: similar

Question: What about the “peak effect (VAS any/good drug effect)” value (healthy subjects [2]; [9]) of the same compound?
Answer: lower than those of psilocybin and LSD

Question: And the “time to peak of subjective effects (VAS any/good drug effect)” value (healthy subjects [2]; [9])?
Answer: took longer to peak compared to those of psilocybin and LSD

Question: What about the “duration of subjective effects (VAS any drug effect)” value (healthy subjects [2]; six healthy volunteers) of the same compound?
Answer: lasted similarly long

Question: And the “increases in blood pressure, heart rate and body temperature after mescaline” value (healthy subjects [3]; 6 subjects, mescaline 300 mg)?
Answer: tended to be attenuated compared with both psilocybin and LSD

Question: What about the thermogenic effects (healthy subjects [3]; Example 1) of the same compound?
Answer: reduced thermogenic effects of mescaline compared to psilocybin

Question: What about the “effects on heart rate” value (healthy subjects [3]; doses used, not statistically confirmed) of the same compound?
Answer: tended to be lower than those of psilocybin

Question: What about the “interaction with the SERT” value (5-HT transporter (SERT)) of the same compound?
Answer: do not interact with the SERT

Question: And the “duration of subjective effects” value (healthy male subjects; [8])?
Answer: 12 to 14 h

Question: And the “onset of subjective effects” value (healthy male subjects; [8])?
Answer: ≤ 30 min

Question: What about the “share excreted in urine” value (healthy male subjects; [8]) of the same compound?
Answer: 55-60%

Question: What about the “time of peak subjective effects” value (healthy male subjects; [8]) of the same compound?
Answer: 4 h

Question: And the “onset of subjective effects” value (healthy male subjects; 500 mg mescaline hydrochloride orally, listed as mescaline hydrochloride)?
Answer: approximately 30 min

Question: What about the “delay of the peak subjective response compared with the plasma peak” value (healthy male subjects; 500 mg orally) of the same compound?
Answer: about 2 hours

Question: What about the “radioactivity administered excreted within 24 hours” value (healthy male subjects; 500 mg orally) of the same compound?
Answer: 87%

Question: And the “radioactivity administered excreted within 48 h” value (healthy male subjects; 500 mg orally)?
Answer: 92%

Question: And the half-life (healthy male subjects; mescaline hydrochloride 500 mg orally, radioactivity ingested as mescaline)?
Answer: approximately six

Question: What about the “average APZ score AIA (anxious ego-dissolution)” value (healthy subjects [7]) of the same compound?
Answer: 7.1

Question: And the “average APZ score VUS (visionary restructuralization)” value (healthy subjects [7])?
Answer: 7.4

Question: What about the “average APZ score OSE (oceanic boundlessness)” value (healthy subjects [7]; indirect comparison) of the same compound?
Answer: 6.2

Question: And the “dose to induce a full psychedelic experience” value (humans; (51, 86))?
Answer: about 300 mg

Question: What about the “potency relative to LSD (times less potent)” value (humans; (86)) of the same compound?
Answer: 1000-3000 times

Question: And the “potency relative to psilocybin (times less potent)” value (humans; (86))?
Answer: around 30 times

Question: And the subjective effect duration (humans; moderate dose (86))?
Answer: 10 to 12 h

Question: What about the “affinity for D2 receptors” value (D2 receptors) of the same compound?
Answer: no affinity

Question: And the abuse-related rewarding effects (rodent)?
Answer: no abuse-related rewarding effects

Question: And the “total alterations of consciousness (total 3D-OAV score) relative to LSD (100 μg) or psilocybin (20 mg)” value (healthy subjects [6]; mescaline 300 mg oral, peak responses rated 12 hours after administration)?
Answer: approximately 50%

Question: With `COc1cc(CC(=O)O)cc(OC)c1OC` [TMPA, 3,4,5-trimethoxyphenylacetic acid] as the compound, how does the “share excreted in urine” value (healthy male subjects; [8]) read?
Answer: 27-30%

Question: And the “psychoactive or cardiostimulant properties of metabolites administered to humans” value (healthy male subjects)?
Answer: not to have psychoactive or cardiostimulant properties
